# Measured values: patent US20110059909A1, “METHODS FOR TREATING INFLAMMATORY DISORDERS” (priority 2004, published 2011)
# Experiments:
# [1] = cited from earlier work
# rat primary astrocytes [2] = assay: Assay for NO production (nitrite, Griess reagent) in LPS/IFNγ-stimulated primary astrocytes; assay type: cell-based; details: for LPS/IFNγ-induced NO production: primary astrocytes, LPS/IFNγ (1 μg/ml; 10 U/ml), NO at 24 h; for Reversal of PDMP-mediated inhibition of LPS/IFNγ-induced NO production: PDMP 50 μM plus exogenous glycosphingolipid 5 and 10 μM, 0.5 h before LPS/IFNγ
# Experimental: (§1) Primary astrocyte-enriched cultures were prepared from the whole cortex of one day old Sprague-Dawley rats as described earlier (Pahan et al., 1998b). Briefly, the cortex was rapidly dissected in ice-cold calcium/magnesium free Hanks Balanced Salt Solution (HBSS) (Gibco, Grand Island, N.Y.) at pH 7.4 as described previously (Won et al., 2001). The tissue was then minced, incubated in HBSS containing trypsin (2 mg/ml) for 20 min and washed twice in plating medium containing 10% FBS and 10 μg/ml gentamicin, and then disrupted by triturating through a Pasteur pipette following which cells were seeded in 75-cm^2 culture flasks (Falcon, Franklin, N.J.). After incubation at 37° C. in 5% CO2 for 1 day, the medium was completely changed to the culture medium (DMEM containing 5% FBS and 10 μg/ml gentamicin). The cultures received half exchanges with fresh medium twice a week. After 14-15 days the cells were shaken for at least 24 h on an orbital shaker to remove the microglia and then seeded on multi-well tissue culture dishes. The cells were incubated with serum-free DMEM for 24 h prior to the incubation with drugs.
# Cells were cultured in 12-well plastic tissue culture plates. Following appropriate treatment, production of NO was determined by an assay of the culture supernatant for nitrite (Green et al., 1982). Briefly, 100 μl of culture supernatant was allowed to react with 100 μl of Griess reagent. The optical density of the assay samples was measured spectrophotometrically at 570 nm. Nitrite concentrations were calculated from a standard curve derived from the reaction of NaNO2 in fresh media.
# small GTPase Ras = assay: Quantification of Ras activation (GST-Raf-1 RBD pull-down) in primary astrocytes; assay type: cell-based, rat; details: for LacCer-mediated Ras activation: NAC 10 mM or PDTC 100 μM 1 h, LacCer 5 min
# Experimental: After stimulation, primary astrocytes in 6-well plates were washed with ice cold PBS and lysed in membrane lysis buffer (MLB; 0.5 ml of 25 mM HEPES, pH 7.5, 150 mM NaCl, 1% Igepal CA-630, 0.25% sodium deoxycholate, 10% glycerol, 10 mM MgCl2, 1 mM EDTA, 25 mM NaF, 1 mM of sodium orthovanadate, and EDTA free Complete™ protease inhibitor cocktail). After centrifugation (5,000×g) at 4° C. for 5 min, supernatant was used for Ras activation assay. One hundred μg of supernatant was used for binding with agarose conjugated Ras-binding domain (RBD) of Raf-1 which was expressed in BL21 (Invitrogen), Escherichia coli strain, transformed by pGEX-2T-GST-RBD in the presence of 0.1 mM of IPTG as described previously (Herrmann et al., 1995). The binding reaction was performed at 4° C. for 30 min in MLB. Following washing with MLB three times, Ras-RBD complex were denatured by adding of 2×SDS sample buffer. Ras protein was identified by western blot analysis with Ras antibodies from Upstate Biotechnology.
# iNOS = iNOS mRNA (RT-PCR) and protein (immunoblot) in LPS/IFNγ-stimulated primary astrocytes; assay type: cell-based, rat; details: primary astrocytes; LPS/IFNγ (1 μg/ml; 10 U/ml); mRNA 6 h, protein 24 h
# Experimental: as §1
# (§2) For iNOS protein, the cells were washed with cold Tris buffered saline (TBS; 20 mM Trizma base, and 137 mM NaCl, pH 7.5), lysed in 1×SDS sample loading buffer (62.5 mM Trizma base, 2% w/v SDS, 10% glycerol), following sonication and centrifugation at 15,000×g for 5 min, the supernatant was used for the iNOS western immunoblot assay. The protein concentration of samples was determined with the detergent compatible protein assay reagent (Bio-Rad Laboratories, CA) using bovine serum albumin (BSA) as the standard. Sample was boiled for 3 min with 0.1 volumes of 10% β-mercaptoethanol and 0.5% bromophenol blue mix. Fifty μg of total cellular protein was resolved by electrophoresis on 8 or 12% polyacrylamide gels, electro-transferred to polyvinylidene difluoride (PVDF) filter and blocked with Tween 20 containing Tris-buffered saline (TBST; 10 mM Trizma base-pH 7.4, 1% Tween 20, and 150 mM NaCl) with 5% skim milk. After incubation with antiserum against iNOS (BD PharMingen, CA), rat GalT-2 (Abjent Inc., CA), H-Ras (Upstate Biotechnology, CA), GFAP (Santa Cruz Biotech, CA), or phospho-specific ERK1/2 (Cell signaling Tech Inc., MA), or pIκ-B (Signal Transduction), in PVDF buffer for 2 h at room temperature, the filters were washed 3 times with TBST buffer and then incubated with horseradish peroxidase conjugated anti-rabbit or mouse IgG for 1 h. The membranes were detected by autoradiography using ECL-plus (Amersham Pharmacia Biotech) after washing with TBST buffer.
# 5 μg total RNA was treated with 2 U DNAse I (bovine pancreas, Sigma) for 15 min at room temperature in 18 μl volume containing 1×PCR buffer and 2 mM MgCl2. It was then inactivated by incubation with 2 μl of 25 mM EDTA at 65° C. for 15 min. 2 μl of random primers were added and annealed to the RNA according to the manufacturer's protocol. cDNA was synthesized in a 50 μl reaction containing 5 μg of total RNA and 50-100 U reverse transcriptase by incubating the tubes at 42° C. for 60 min. PCR amplification was conducted in 25 μl of reaction mixture with 1.0 μl of cDNA, […] of each primer and under the manufacturer's Taq polymerase conditions (Takara, Takara Shuzo Co. Ltd, Japan). The sequence of primers used for PCR amplification are as follows; iNOS, (Forward-5′ […] 3′, SEQ ID NO:3; Reverse-5′ […] 3′, SEQ ID NO:4), GalT-2 (Forward-5′ tggtacaagctagaggc 3′, SEQ ID NO:5; Reverse-5′ gcatggcacattgaa C-3′, SEQ ID NO:6), GAPDH (Forward-5′ […] 3′, SEQ ID NO:7; Reverse-5′ cttcacgaagttgtcattgagggca3′, SEQ ID NO:8), TNFα (Forward-5′ […] g-3′, SEQ ID NO:9; Reverse-5′[…]-3′, SEQ ID NO:10) and IL-1β (Forward-5′[…]-3′, SEQ ID NO:11; reverse-5′[…]-3′, SEQ ID NO:12).
# GFAP = GFAP mRNA (real time PCR) and protein (immunoblot) in TNFα-stimulated primary astrocytes; assay type: cell-based, rat
# Experimental: as §2
# rat primary astrocytes [3] = assay: BrdU incorporation assay, proliferation of primary astrocytes; assay type: cell-based; details: for Proliferation of astrocytes induced by the substance itself: increasing doses (1, 5 and 10 μM for GSL), 18 h
# Experimental: as §1
# Proliferation of primary astrocytes was assayed by using the Cell proliferation ELISA, BrdU colorimetric assay kit (Roche, Germany) according to manufacturer's protocol. Briefly, cells were seeded in 96 well plates in quadruplicate and following overnight serum starvation were stimulated with mitogenic stimulants. 2 h before termination of proliferation assay, BrdU (10 μM) was added to each well following which cells were fixed and levels of incorporated BrdU were assayed by using a conjugated anti-BrdU enzyme. Colorimetric analysis was done by measuring absorbance at 370 nm using a spectramax MAX 190 (Molecular devices) multi-well plate reading spectrophotometer.
# ERK1/2 = ERK1/2 activation (phospho-ERK1/2 immunoblot) in primary astrocytes; assay type: cell-based, rat; details: pretreated 0.5 h, TNFα 20 min
# Experimental: as §2
# PI-3K = assay: PI-3 kinase activity assay; assay type: cell-based, rat; details: exogenous lipid
# Experimental: Cells after stimulation in serum-free DMEM/F-12 were lysed with ice-cold lysis buffer containing 1% (vol/vol) NP-40,100 mM NaCl, 20 mM Tris (pH 7.4), 10 mM iodoacetamide, 10 mM NaF, 1 mM sodium orthovanadate, 1 mM […], 1 μg/ml leupeptin, 1 μg/ml antipain, 1 mg/ml aprotinin, and 1 μg/ml pepstatin A. Lysates were incubated at 4° C. for 15 min, followed by centrifugation at 13,000 g for 15 min. The supernatant was pre-cleared with protein G-Sepharose beads (Pharmacia Biotech) for 1 h at 4° C. followed by the addition of 1 μg/ml p85α monoclonal antibody. After 2 h of incubation at 4° C., protein G-Sepharose beads were added and the resulting mixture was further incubated for 1 h at 4° C. The immunoprecipitates were washed twice with lysis buffer, once with phosphate-buffered saline (PBS), once with 0.5 M LiCl and 100 mM Tris (pH 7.6), once in water, and once in kinase buffer (5 mM MgCl2, 0.25 mM EDTA, 20 mM HEPES, pH 7.4). PI-3kinase activity was determined as already described (Ward et al., 1992; Pahan et al., 1999) using a lipid mixture of 100 μl of 0.1 mg/ml PI and 0.1 mg/ml phosphatidylserine dispersed by sonication in 20 mM HEPES (pH 7.0) and 1 mM EDTA. The reaction was initiated by the addition of 20 of [γ-32P] […]
compound,measurement,setting,value
"CCCCN1CC(O)C(O)C(O)C1CO [Miglustat, 1,5-(butylimino)-1,5-dideoxy-D-glucitol]",Solubility in water,[1],soluble in water
"CC(=O)N[C@@H](CS)C(=O)O [NAC, N-Acetyl cysteine]",LPS/IFNγ-induced NO production,rat primary astrocytes [2],blocked
same,LacCer-mediated Ras activation,small GTPase Ras,inhibited
same,LPS/IFNγ-induced iNOS mRNA and protein levels,iNOS,blocked
COc1cccc(-c2cc(=O)c3ccccc3o2)c1N [PD98059],LPS/IFNγ-induced NO production,rat primary astrocytes [2],inhibition
same,TNFα-induced GFAP mRNA and protein expression,"GFAP; TNFα 1 ng/ml, mRNA 8 h, protein 18 h",inhibited
same,TNFα-induced astrocyte proliferation,"rat primary astrocytes [3]; pretreated 0.5 h (AS: 48 h after transfection), TNFα 1 ng/ml 18 h, BrdU incorporation",inhibited
same,TNFα-induced ERK1/2 phosphorylation,ERK1/2,inhibited
same,LPS/IFNγ-induced iNOS mRNA and protein levels,iNOS,inhibition
"S=C(S)N1CCCC1 [PDTC, pyrrolidine dithiocarbamate]",LPS/IFNγ-induced NO production,rat primary astrocytes [2],blocked
same,LacCer-mediated Ras activation,small GTPase Ras,inhibited
same,LPS/IFNγ-induced iNOS mRNA and protein levels,iNOS,blocked
"CCCCCCCCCCCCC/C=C/[C@@H](O)[C@@H](N)COP(=O)(O)O [S1P, sphingosine-1-phosphate]",Reversal of DMS-mediated inhibition of TNFα-induced GFAP expression,GFAP; exogenous lipid,reversed
same,Reversal of PDMP-mediated inhibition of TNFα-induced proliferation,rat primary astrocytes [3]; PDMP 25 μM plus exogenous lipid,could not be reversed
same,Reversal of DMS-mediated inhibition of TNFα-induced proliferation,rat primary astrocytes [3]; exogenous lipid,reversed
same,Reversal of PD98059-mediated inhibition of TNFα-induced proliferation,rat primary astrocytes [3]; exogenous lipid,could not be reversed
same,Proliferation of astrocytes induced by the substance itself,rat primary astrocytes [3]; BrdU incorporation,induced astrocyte proliferation
same,Reversal of DMS-mediated inhibition of PI-3K activation,PI-3K,able to reverse
same,Reversal of DMS-mediated inhibition of Ras activation,small GTPase Ras; exogenous lipid,reverses
Glucosylceramide [GluCer],Reversal of PDMP-mediated inhibition of LPS/IFNγ-induced NO production,rat primary astrocytes [2],did not reverse
same,Proliferation of astrocytes induced by the substance itself,rat primary astrocytes [3]; BrdU incorporation,did not have a similar effect
galactosylceramide [GalCer],Reversal of PDMP-mediated inhibition of LPS/IFNγ-induced NO production,rat primary astrocytes [2],did not reverse
same,Proliferation of astrocytes induced by the substance itself,rat primary astrocytes [3]; BrdU incorporation,neither induced proliferation
